# From ChEMBL document CHEMBL1137903 (Bioorg Med Chem Lett, 2004)
# pEC50, pKi: −log10 of the molar value.
# Columns and labels:
# [1] = target: T1, Melatonin receptor type 1A (Homo sapiens, UniProt P48039); assay: Inhibition of 2-[125I]iodomelatonin binding to membrane preparations of NIH3T3 cells stably expressing human Melatonin receptor type 1A; type: cell membranes
# [2] = target: T2, Melatonin receptor type 1B (Homo sapiens, UniProt P49286); assay: Inhibition of 2-[125I]iodomelatonin binding to membrane preparations of NIH3T3 cells stably expressing human Melatonin receptor type 1B; type: cell membranes
# T2 sequence (P49286 whole entry): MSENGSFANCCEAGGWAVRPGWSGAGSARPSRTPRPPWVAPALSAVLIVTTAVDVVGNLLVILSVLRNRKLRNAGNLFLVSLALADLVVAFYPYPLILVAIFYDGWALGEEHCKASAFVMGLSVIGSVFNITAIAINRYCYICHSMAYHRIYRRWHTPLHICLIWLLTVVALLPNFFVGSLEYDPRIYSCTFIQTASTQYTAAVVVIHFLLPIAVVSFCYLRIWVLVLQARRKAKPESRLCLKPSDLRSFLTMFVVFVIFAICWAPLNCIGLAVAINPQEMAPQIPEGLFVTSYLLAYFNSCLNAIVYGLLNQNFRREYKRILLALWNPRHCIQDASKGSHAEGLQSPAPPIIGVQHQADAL
# [3] = Bioavailability in rat (dose 1 mg/kg p.o.); type: ADME, organism-based; conditions: in vivo, po
# [4] = Volume of distribution in rats after the administration of 1 mg/kg i.v. dose; type: ADME, organism-based; parameters: dose 1 mg/kg, route intravenous; conditions: rat, in vivo, iv
# [5] = Half-life in rats after the administration of 1 mg/kg i.v. dose; type: ADME, organism-based; parameters: dose 1 mg/kg, route intravenous; conditions: rat, in vivo, iv
# [6] = target: T1, Melatonin receptor type 1A; assay: Intrinsic activity towards human Melatonin receptor type 1A relative to melatonin
# [7] = target: T1, Melatonin receptor type 1A; assay: Agonist activity towards human Melatonin receptor type 1A was determined by its ability to inhibit forskolin stimulated cAMP accumulation; type: functional
# [8] = Clearance in rats after the administration of 1 mg/kg i.v. dose; type: ADME, organism-based; parameters: dose 1 mg/kg, route intravenous; conditions: rat, in vivo, iv
# [9] = target: T2, Melatonin receptor type 1B; assay: Agonist activity towards human Melatonin receptor type 1B was determined by its ability to inhibit forskolin stimulated cAMP accumulation; type: functional
# T1 sequence (P48039 whole entry): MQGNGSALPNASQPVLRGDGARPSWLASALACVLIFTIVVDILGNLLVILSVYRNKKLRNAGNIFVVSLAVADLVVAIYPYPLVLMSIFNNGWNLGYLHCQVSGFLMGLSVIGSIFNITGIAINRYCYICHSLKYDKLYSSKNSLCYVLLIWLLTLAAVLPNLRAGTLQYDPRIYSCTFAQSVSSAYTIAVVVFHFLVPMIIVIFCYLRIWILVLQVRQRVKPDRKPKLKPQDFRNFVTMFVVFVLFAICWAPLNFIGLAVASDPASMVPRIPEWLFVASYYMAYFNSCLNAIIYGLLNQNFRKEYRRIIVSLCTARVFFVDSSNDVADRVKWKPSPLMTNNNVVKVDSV
Structure (SMILES),pKi [1],pKi [2],further results
CC(C)C(=O)NCCCc1cccc2oc(CCCCc3ccccc3)cc12,8.43,7.08,
CC(C)C(=O)N[C@H]1CCN(c2cccc3oc(CCCCc4ccccc4)cc23)C1,6.98,6.79,
CC(C)C(=O)NC[C@@H]1CC1c1cccc2oc(CCCCc3ccccc3)cc12 (some centres undefined),7.64,7.27,
CC(=O)N[C@H]1CCN(c2cccc3oc(CCCCc4ccccc4)cc23)C1,7.66,7.85,
CCNC(=O)NC[C@@H]1C[C@H]1c1cccc2oc(CCCCc3ccccc3)cc12,7.48,7.05,
CCNC(=O)N[C@H]1CCN(c2cccc3oc(CCCCc4ccccc4)cc23)C1,7.41,7.01,
CCC(=O)NC[C@@H]1CC1c1cccc2oc(CCCCc3ccccc3)cc12 (some centres undefined),8.68,8.55,
O=C(NC[C@@H]1CC1c1cccc2oc(CCCCc3ccccc3)cc12)C1CC1 (some centres undefined),7.80,7.48,
CCCC(=O)NC[C@@H]1CC1c1cccc2oc(CCCCc3ccccc3)cc12 (some centres undefined),8.00,8.00,
CCCC(=O)N[C@H]1CCN(c2cccc3oc(CCCCc4ccccc4)cc23)C1,7.96,8.14,
CCC(=O)NCCCc1cccc2oc(CCCCc3ccccc3)cc12,8.12,7.22,
COc1ccc2[nH]cc(CCNC(C)=O)c2c1 [MELATONIN],,,bioavailability [3]: 24%
O=C(NCCCc1cccc2oc(CCCCc3ccccc3)cc12)C1CC1,8.22,7.02,
CCCC(=O)NCCCc1cccc2oc(CCCCc3ccccc3)cc12,7.80,7.09,
CCC(=O)N[C@H]1CCN(c2cccc3oc(CCCCc4ccccc4)cc23)C1,8.62,8.22,
CC(=O)NCCCc1cccc2oc(CCCCc3ccccc3)cc12,7.72,6.90,
CC(=O)NC[C@@H]1CC1c1cccc2oc(CCCCc3ccccc3)cc12 (some centres undefined),8.59,8.00,Vd [4]: 0.557 L/kg; half-life [5]: 3.8 h; Activity [6]: 0.97; pEC50 [7]: 9.22; bioavailability [3]: 90%; clearance [8]: 27.5 mL/min/kg; pEC50 [9]: 7.68
O=C(N[C@H]1CCN(c2cccc3oc(CCCCc4ccccc4)cc23)C1)C1CC1,7.38,6.82,
CCNC(=O)NCCCc1cccc2oc(CCCCc3ccccc3)cc12,7.68,7.28,
